Test results from patent US20260183274A1, “PDK1 REGULATORY COMPOUND AND COMPOSITION CONTAINING THE SAME” (PROVIBIO CO., LTD., priority 2024, published 2026).

Test system: T cells isolated from mouse spleens
Assay: T cell proliferation inhibition (CFSE flow cytometry, anti-CD3/anti-CD28 stimulation)
Assay type: cell-based
Settings: mouse spleen T cells, 3 days; for inhibition at 0.01 µM / inhibition at 0.1 µM / inhibition at 1 µM / inhibition at 10 µM / inhibition at 30 µM / inhibition at 50 µM: Mus musculus, T-cell, 72 h, read-out: Proliferation inhibition rate (%)
Protocol: To verify the T cell proliferation inhibitory effect of the compounds according to the present invention, the following experiment was performed based on flow cytometry analysis using carboxyfluorescein diacetate succinimidyl ester (CFSE), a fluorescent dye that binds to intracellular molecules via covalent bonds.
Spleens were extracted from 7-week-old C57BL/6 mice, ground, and then separated into single cells using a strainer (40 μm pore size, SPL). Red blood cells were removed using ACK (Ammonium-Chloride-Potassium) lysis buffer to isolate white blood cells.
Finally, using a MACS Magnetic Stand and LS column, T cells were isolated from the spleen.
The T cells isolated from the spleen were resuspended in 1 mL of free medium (RPMI-1640+200 U/mL penicillin+200 μg/mL streptomycin), and 0.3 μL of CFSE (10 mM) was added. The mixture was incubated at 37° C. for 5 minutes.
Free medium (10 mL) was added to stop the reaction, and the cells were centrifuged to obtain the cell pellet.
RPMI 1640 medium containing 10% FBS, 100 U/mL penicillin, 100 μg/mL streptomycin, and resuspended the cells. The cells were then seeded into a 96-well plate at a density of 2×10^5 cells per well and activated with CD3 and CD28 antibodies (0.5 μg/mL each) to activate T cells.
The compound diluted in DMSO was added at concentrations of 10 nM, 100 nM, 1 μM, 10 μM, 30 μM, and 50 μM, with three wells per concentration, and cultured at 37° C. and 5% CO2 for three days. The cells were then analyzed using a FACS Canto instrument.
The proliferation inhibition rate (%) was calculated using the following formula: […]

SMILES | Proliferation inhibition rate (%) (compound 100 nM) | Proliferation inhibition rate (%) (compound 1 μM) | Proliferation inhibition rate (%) (compound 10 μM) | Proliferation inhibition rate (%) (compound 30 μM) | Proliferation inhibition rate (%) (compound 50 μM) | inhibition at 0.01 µM (compound 10 nM) | inhibition at 0.1 µM (compound 100 nM) | inhibition at 1 µM (compound 1 μM) | inhibition at 10 µM (compound 10 μM) | inhibition at 30 µM (compound 30 μM) | inhibition at 50 µM (compound 50 μM) | also measured
Nc1nc(NC(=O)CCCCCCCCCCCCN2CCC(O)CC2)nc2nc[nH]c12 [Compound 13, 12-(4-hydroxypiperidin-1-yl)dodecyl-N-(6-aminopurine-2-yl) carboxamide] | – | – | – | – | – | – | – | – | – | – | – | Proliferation inhibition rate (%) (compound 10 nM, listed as GO87, 0.01 µM): 9.13%; Proliferation inhibition rate (%) (compound 100 nM, listed as GO87, 0.1 µM): 1.71%; Proliferation inhibition rate (%) (compound 10 μM, listed as GO87, 10 µM): 81.15%
Nc1ncccc1C(=O)NCCCCCCCCCCCCN1CCC2CCCCC2C1 (stereo not shown) [Compound 16, 2-Amino-N-(12-(octahydroisoquinolin-2 (1H)-yl)dodecyl) nicotinamide] | −2.93% | 100.00% | 100.00% | 100.00% | 100.00% | – | – | – | – | – | – | Proliferation inhibition rate (%) (compound 10 nM): 4.13%
Nc1ncccc1C(=O)NCCCCCCCCCCCCN1CCc2ccccc2C1 [Compound 17, 2-Amino-N-(12-(3,4-dihydroisoquinolin-2 (1H)-yl)dodecyl) nicotinamide] | – | – | – | – | – | – | – | – | – | – | – | Proliferation inhibition rate (%) (compound 10 nM, listed as PBK-2024-004, 0.01 µM): 0.00%; Proliferation inhibition rate (%) (compound 100 nM, listed as PBK-2024-004, 0.1 µM): −14.00%; Proliferation inhibition rate (%) (compound 1 μM, listed as PBK-2024-004, 1 µM): 100.00%; Proliferation inhibition rate (%) (compound 10 μM, listed as PBK-2024-004, 10 µM): 100.00%
CN(CCCCCCCCCCCCNC(=O)c1cccnc1N)C1CCCCC1 [Compound 34, 2-Amino-N-(12-(cyclohexyl(methyl)amino)dodecyl) nicotinamide] | 100.00% | 100.00% | 100.00% | 100.00% | 100.00% | – | – | – | – | – | – | Proliferation inhibition rate (%) (compound 10 nM): 2.08%
CC1CN(CCCCCCCCCCCCNC(=O)c2cccnc2N)C(C)CN1.Cl (stereo not shown) [Compound 36, 2-Amino-N-(12-(2,5-dimethylpiperazin-1-yl)dodecyl) nicotinamide hydrochloride] | 100.00% | 100.00% | 100.00% | 100.00% | 100.00% | – | – | – | – | – | – | Proliferation inhibition rate (%) (compound 10 nM): −38.89%
Nc1ncccc1C(=O)NCCCCCCCCCCCCN1CCC(O)CC1 [Compound 48, 2-Amino-N-(12-(4-hydroxypiperidin-1-yl)dodecyl) nicotinamide] | 100.00% | 100.00% | 100.00% | 100.00% | 100.00% | – | – | – | – | – | – | Proliferation inhibition rate (%) (compound 10 nM, listed as PBK-2025-012, 0.01 µM): −18.31%
CN(CCCCCCCCCCCCNC(=O)c1cccnc1N)C(C)(C)C [Compound 53, 2-Amino-N-(12-(tert-butyl(methyl)amino)dodecyl) nicotinamide] | 100.00% | 100.00% | 100.00% | 100.00% | 100.00% | – | – | – | – | – | – | Proliferation inhibition rate (%) (compound 10 nM): −26.59%
O=C(NCCCCCCCCCCCCF)c1cccnc1Br [Compound 58, 2-Bromo-N-(12-fluoro-dodecyl)-nicotinamide] | – | – | – | – | – | -4.38% | 1.78% | 1.92% | 20% | 78.9% | 95.8% | –
O=C(NCCCCCCCCCCCCF)c1ccncc1Nc1cccc(C(F)(F)F)c1 [Compound 59, N-(12-fluoro-dodecyl)-3-(3-trifluoromethyl-phenylamino)-isonicotinamide] | – | – | – | – | – | 0% | 0% | 0% | -8.32% | 78.4% | 99.8% | –
O=C(NCCCCCCCCCCCCF)c1cnccc1Cl [Compound 60, 4-Chloro-N-(12-fluoro-dodecyl)-nicotinamide] | – | – | – | – | – | -1.92% | 8.77% | 6.85% | 63.5% | 100% | 100% | –
CS(=O)(=O)c1ncccc1C(=O)NCCCCCCCCCCCCF [Compound 67, N-(12-fluoro-dodecyl)-2-methylsulfonyl-nicotinamide] | – | – | – | – | – | 0% | 0% | 0% | -3.83% | 73.8% | 100% | –
O=C(NCCCCCCCCCCCCF)c1ccncc1I [Compound 76, N-(12-fluoro-dodecyl)-3-iodo-isonicotinamide] | – | – | – | – | – | 0% | 0% | 0% | -4.95% | 23.7% | 97.8% | –
N#CCCCCCCCCCCNC(=O)c1ccccc1Br [Compound 77, 2-Bromo-N-(10-cyano-decyl)benzamide] | – | – | – | – | – | 1.51% | -3.97% | 15.3% | 2.09% | 3.8% | 32.2% | –
Nc1ncccc1C(=O)NCCCN1CCOCC1 [Compound 78, 2-amino-N-(3-morpholin-4-yl-propyl)nicotinamide] | – | – | – | – | – | -7.14% | -4.19% | -3.73% | 0.68% | 4.51% | 8.76% | –
N#CCCCCCCCCCCNC(=O)c1cccnc1N [Compound 79, 2-amino-N-(10-cyano-decyl)-nicotinamide] | – | – | – | – | – | -2.19% | 1.23% | 7.12% | 11% | 27.9% | 34.7% | –
CCOC(=O)C1CCCN(CCCCCCCCCCCCNC(=O)c2cccnc2N)C1 (stereo not shown) [Compound 92, ethyl 1-(12-(2-aminonicotinamido)dodecyl)piperidine-3-carboxylate] | – | – | – | – | – | -9.65% | 100% | 100% | 100% | 100% | 100% | –
COC(=O)C1CCN(CCCCCCCCCCCCNC(=O)c2cccnc2N)CC1 [Compound 93, methyl 1-(12-(2-aminonicotinamido)dodecyl)piperidine-4-carboxylate] | – | – | – | – | – | -12.9% | 100% | 100% | 100% | 100% | 100% | –
COC1CCN(CCCCCCCCCCCCNC(=O)c2cccnc2N)CC1 [Compound 94, 2-amino-N-(12-(4-methoxypiperidin-1-yl)dodecyl) nicotinamide] | 100.00% | 100.00% | 100.00% | 100.00% | 100.00% | – | – | – | – | – | – | Proliferation inhibition rate (%) (compound 10 nM): −25.44%
COCCN1CCN(CCCCCCCCCCCCNC(=O)c2cccnc2N)CC1 [Compound 95, 2-amino-N-(12-(4-(2-methoxyethyl)piperazin-1-yl)dodecyl)nicotinamide] | – | – | – | – | – | 94.4% | 100% | 100% | 100% | 100% | 100% | –
C=CCN(C)CCCCCCCCCCCCNC(=O)c1cccnc1N [Compound 96, N-(12-(allyl(methyl)amino)dodecyl)-2-aminonicotinamide] | – | – | – | – | – | -0.58% | 100% | 100% | 100% | 100% | 100% | –
